{"source": "patent US20190211397A1", "about": "“INHIBITORS OF GPR132 FOR USE IN PREVENTING AND/OR TREATING CHEMOTHERAPY-INDUCED NEUROPATHIC PAIN” (Fraunhofer-Gesellschaft zur Foerderung der angewandten …, priority 2016, published 2019)", "test_system": "wild type, TRPV1-deficient and G2A-deficient mice", "assay": "Mechanical pain thresholds after intraplantar 9-HODE in oxaliplatin-treated mice", "format": "in vivo", "settings": "for mechanical pain thresholds after intraplantar 9-HODE: day eight after oxaliplatin treatment; for mechanical paw withdrawal latencies after intraplantar 9-HODE: day 8 of oxaliplatin treatment", "text": "In all behavioral tests the experimenter was unaware of the treatment and the genotype of the mice. For all behavioral experiments we used only 6-12 weeks old C57BU6N mice purchased from commercial breeding companies (Charles River, Sulzfeld, Germany, Janvier, Le Geneset-Saint-lsle, FR). G2A and TRPV1 knockout strains were from Jackson laboratories. All experiments followed the ethics guidelines for investigations in conscious animals and the procedures were approved by the local Ethics Committee.\nFor the intra plantar (i.pl.) treatment with 9-HODE (1 0 (JM) (Cayman), a volume of 10 (JI was injected in the mid-plantar area of the hindpaw. For the intraperitoneal (i.p.) treatment, 100 (JI of oxaliplatin (3 mg/kg, Tocris) were injection into the peritoneum. The control group animals were treated with the corresponding volumes of 0.9% saline solution.\nTo determine the mechanical thresholds of mice, a Dynamic Plantar Aesthesiometer (Ugo Basile, Comerio, Italy) was used. Mice were put on an elevated grid in test cages at least 2 h before the measurement to allow accommodation. Then, baseline measurement was performed before the treatment with Oxaliplatin or 9-HODE. Therefore, a steel rod pushed against the plantar side of the hind paw with linear ascending force (0-5 g over 10 s, in 0.5 g/s intervals) until a fast withdraw of the paw was observed The time between the first contact of the steel rod and the paw withdraw was measured in seconds (paw withdraw latency) and a cut-off time of 20 s was set.", "data": [{"smiles": "CCCCC/C=C\\C=C\\C(O)CCCCCCCC(=O)O", "note": "(stereo not shown) [9-HODE, 9-hydroxy-10E,12Z-octadecadienoic acid]", "values": [{"measurement": "mechanical pain thresholds after intraplantar 9-HODE", "setting": "G2A-deficient mice", "result": "not in G2A-deficient mice"}, {"measurement": "mechanical paw withdrawal latencies after intraplantar 9-HODE", "setting": "TRPV1-deficient mice", "result": "not in TRPV1-deficient mice"}, {"measurement": "mechanical paw withdrawal latencies after intraplantar 9-HODE", "setting": "wild type mice, ipsilateral paw (TRPV1 study)", "result": "strong reduction of mechanical paw withdrawal latencies"}, {"measurement": "mechanical pain thresholds after intraplantar 9-HODE", "setting": "wildtype mice, left hind paw (G2A study, 10 μM)", "result": "strong reduction of mechanical pain thresholds"}]}]}
